Drawing on ChEMBL document CHEMBL1152321, “Recent advances in the chemistry and biology of new generation taxoids” (J Nat Prod, 2009), this text covers IC50 and Ratio for 29 compounds.

As usually defined, the IC50 is the concentration at which inhibition is half-maximal.

For test [1], the system named is MCF7. Briefly: Cytotoxicity against human MCF7 cells expressing P-glycoprotein after 72 hrs. It counts as functional, cell-based. Particulars: MCF7, 72 h.
The subject of test [2] is MCF7. Briefly: Cytotoxicity against P-glycoprotein deficient wild type human MCF7 cells after 72 hrs. It is filed as functional, cell-based. As to conditions: MCF7, 72 h.
Test [3] has as its system MCF7. Kind of test: Resistance factor, ratio of IC50 for human MCF7 cells expressing P-glycoprotein to IC50 for P-glycoprotein deficient wild type human MCF7 cells. It counts as functional.
Test [4] is described as follows: Cytotoxicity against P-glycoprotein deficient wild type human LCC-6 cells after 72 hrs. It is filed as functional, cell-based. Particulars: LCC-6, 72 h.
Test [5] in a line: Resistance factor, ratio of IC50 for human LCC-6 cells expressing P-glycoprotein to IC50 for P-glycoprotein deficient wild type human LCC-6 cells. It counts as functional. Also on record: reference not given here.
The test system of the next test is HT-29. Kind of test: Cytotoxicity against human HT-29 cells after 72 hrs. It counts as functional, cell-based. As to conditions: HT-29, 72 h.

The structures appear in SMILES notation.

As for `COc1cccc(C(=O)O[C@H]2[C@@H]3[C@]4(OC(C)=O)CO[C@@H]4C[C@H](O)[C@@]3(C)C(=O)[C@H](OC(=O)C3CC3)C3=C(C)[C@@H](OC(=O)[C@H](O)[C@H](C=C(F)F)NC(=O)OC(C)(C)C)C[C@]2(O)C3(C)C)c1`, the results for the IC50 in the test on MCF7 [1] and in the test with MCF7 [2] were 0.48 nM and 0.092 nM, respectively. Besides, in the test on MCF7 [3], the Ratio amounted to 5.2.
Compound `CC(=O)O[C@H]1C(=O)[C@@]2(C)[C@H]([C@H](OC(=O)c3cccc(C)c3)[C@]3(O)C[C@H](OC(=O)[C@H](O)[C@H](C=C(C)C)NC(=O)OC(C)(C)C)C(C)=C1C3(C)C)[C@]1(OC(C)=O)CO[C@@H]1C[C@@H]2O` had an IC50 in test [4] of 1.5 nM.
Regarding `COc1cccc(C(=O)O[C@H]2C(=O)[C@@]3(C)[C@H]([C@H](OC(=O)c4ccccc4)[C@]4(O)C[C@H](OC(=O)[C@H](O)[C@H](C=C(C)C)NC(=O)OC(C)(C)C)C(C)=C2C4(C)C)[C@]2(OC(C)=O)CO[C@@H]2C[C@@H]3O)c1`, the Ratio in test [5] is 1.8. In test [4], this compound yielded an IC50 of 2.8 nM.
With `CCC(=O)O[C@H]1C(=O)[C@@]2(C)[C@H]([C@H](OC(=O)c3cccc(F)c3)[C@]3(O)C[C@H](OC(=O)[C@H](O)[C@H](CC(C)C)NC(=O)OC(C)(C)C)C(C)=C1C3(C)C)[C@]1(OC(C)=O)CO[C@@H]1C[C@@H]2O`, the Ratio in test [5] was 6. The compound further returned an IC50 in test [4] of 0.4 nM.
Consider `CC(=O)O[C@@]12CO[C@@H]1C[C@H](O)[C@@]1(C)C(=O)[C@H](OC(=O)C3CC3)C3=C(C)[C@@H](OC(=O)[C@H](O)[C@H](C=C(F)F)NC(=O)OC(C)(C)C)C[C@@](O)([C@@H](OC(=O)c4cccc(N=[N+]=[N-])c4)[C@H]21)C3(C)C`, for which the IC50 came out at 0.45 nM in the test with MCF7 [1] and 0.092 nM in the test with MCF7 [2]. Moreover, the Ratio in the test on MCF7 [3] was 4.9.
On to `CCC(=O)O[C@H]1C(=O)[C@@]2(C)[C@H]([C@H](OC(=O)c3cccc(N=[N+]=[N-])c3)[C@]3(O)C[C@H](OC(=O)[C@H](O)[C@H](C=C(C)C)NC(=O)OC(C)(C)C)C(C)=C1C3(C)C)[C@]1(OC(C)=O)CO[C@@H]1C[C@@H]2O`, for which, in test [4], the IC50 came to 0.9 nM.
On the same count and under the same terms, the same measure for `C/C=C/[C@H](NC(=O)OC(C)(C)C)[C@@H](O)C(=O)O[C@H]1C[C@@]2(O)[C@@H](OC(=O)c3cccc(OC)c3)[C@@H]3[C@]4(OC(C)=O)CO[C@@H]4C[C@H](O)[C@@]3(C)C(=O)[C@H](OC(=O)CC)C(=C1C)C2(C)C`: 1.2 nM.
As for `COc1ccc(CCC(=O)O[C@H]2C(=O)[C@@]3(C)[C@H]([C@H](OC(=O)c4ccccc4)[C@]4(O)C[C@H](OC(=O)[C@H](O)[C@H](C=C(C)C)NC(=O)OC(C)(C)C)C(C)=C2C4(C)C)[C@]2(OC(C)=O)CO[C@@H]2C[C@@H]3O)cc1`, the Ratio in test [5] turned out to be 2.9. The compound further displayed an IC50 in test [4] of 1.7 nM.
On the same counts, the results for `COc1cccc(C(=O)O[C@H]2[C@@H]3[C@]4(OC(C)=O)CO[C@@H]4C[C@H](O)[C@@]3(C)C(=O)[C@H](OC(=O)C3CC3)C3=C(C)[C@@H](OC(=O)[C@H](O)[C@H](C=C(C)C)NC(=O)OC(C)(C)C)C[C@]2(O)C3(C)C)c1` are 2.9 and 1 nM.
On the same counts, the results for `CC(=O)O[C@@]12CO[C@@H]1C[C@H](O)[C@@]1(C)C(=O)[C@H](OC(=O)c3cccc4ccccc34)C3=C(C)[C@@H](OC(=O)[C@H](O)[C@H](C=C(C)C)NC(=O)OC(C)(C)C)C[C@@](O)([C@@H](OC(=O)c4ccccc4)[C@H]21)C3(C)C` are 2.9 and 5.3 nM.
As to `CC(=O)O[C@@]12CO[C@@H]1C[C@H](O)[C@@]1(C)C(=O)[C@H](OC(=O)CCc3ccccc3)C3=C(C)[C@@H](OC(=O)[C@H](O)[C@H](C=C(C)C)NC(=O)OC(C)(C)C)C[C@@](O)([C@@H](OC(=O)c4ccccc4)[C@H]21)C3(C)C`, the Ratio in test [5] was 6.1. The compound also came in with an IC50 in test [4] of 5.1 nM.
Consider `CC(=O)O[C@@]12CO[C@@H]1C[C@H](O)[C@@]1(C)C(=O)[C@H](OC(=O)OCc3ccccc3)C3=C(C)[C@@H](OC(=O)[C@H](O)[C@H](C=C(C)C)NC(=O)OC(C)(C)C)C[C@@](O)([C@@H](OC(=O)c4ccccc4)[C@H]21)C3(C)C`, for which the Ratio in test [5] is given as 9.3. Also, the IC50 in test [4] worked out at 1.8 nM.
On to `COc1ccccc1CCC(=O)O[C@H]1C(=O)[C@@]2(C)[C@H]([C@H](OC(=O)c3ccccc3)[C@]3(O)C[C@H](OC(=O)[C@H](O)[C@H](C=C(C)C)NC(=O)OC(C)(C)C)C(C)=C1C3(C)C)[C@]1(OC(C)=O)CO[C@@H]1C[C@@H]2O`, for which the Ratio in test [5] was determined as 3.3. In test [4], half-maximal inhibition (IC50) was put at 1.5 nM.
Regarding `CC(=O)O[C@H]1C(=O)[C@@]2(C)[C@H]([C@H](OC(=O)c3cccc(N=[N+]=[N-])c3)[C@]3(O)C[C@H](OC(=O)[C@H](O)[C@H](C=C(F)F)NC(=O)OC(C)(C)C)C(C)=C1C3(C)C)[C@]1(OC(C)=O)CO[C@@H]1C[C@@H]2O`, the half-inhibitory concentration (IC50) came out at 0.34 nM in the test on MCF7 [1] and 0.092 nM in the test with MCF7 [2]. Besides, the Ratio in the test with MCF7 [3] was determined as 3.7.
For the compound `COC(=O)O[C@H]1C(=O)[C@@]2(C)[C@H]([C@H](OC(=O)c3cccc(OC)c3)[C@]3(O)C[C@H](OC(=O)[C@H](O)[C@H](C=C(F)F)NC(=O)OC(C)(C)C)C(C)=C1C3(C)C)[C@]1(OC(C)=O)CO[C@@H]1C[C@@H]2O`, the results for the IC50 in the test on MCF7 [1] and with MCF7 [2] were 0.5 nM and 0.078 nM, respectively. For the same compound, the Ratio in the test with MCF7 [3] was 6.4.
With `C=Cc1cccc(C(=O)O[C@H]2[C@@H]3[C@]4(OC(C)=O)CO[C@@H]4C[C@H](O)[C@@]3(C)C(=O)[C@H](OC(=O)CC)C3=C(C)[C@@H](OC(=O)[C@H](O)[C@H](C=C(C)C)NC(=O)OC(C)(C)C)C[C@]2(O)C3(C)C)c1`, in test [4], the IC50 is 2.9 nM.
Turning to `COc1cccc(CC(=O)O[C@H]2C(=O)[C@@]3(C)[C@H]([C@H](OC(=O)c4ccccc4)[C@]4(O)C[C@H](OC(=O)[C@H](O)[C@H](C=C(C)C)NC(=O)OC(C)(C)C)C(C)=C2C4(C)C)[C@]2(OC(C)=O)CO[C@@H]2C[C@@H]3O)c1`, the Ratio in test [5] was 9.7. The compound further displayed an IC50 in test [4] of 2.1 nM.
With `COc1ccccc1CC(=O)O[C@H]1C(=O)[C@@]2(C)[C@H]([C@H](OC(=O)c3ccccc3)[C@]3(O)C[C@H](OC(=O)[C@H](O)[C@H](C=C(C)C)NC(=O)OC(C)(C)C)C(C)=C1C3(C)C)[C@]1(OC(C)=O)CO[C@@H]1C[C@@H]2O`, in test [5], the Ratio is 6. The IC50 in test [4] was determined as 2.3 nM.
For `CC(=O)O[C@@]12CO[C@@H]1C[C@H](O)[C@@]1(C)C(=O)[C@H](OC(=O)c3ccccc3)C3=C(C)[C@@H](OC(=O)[C@H](O)[C@H](C=C(C)C)NC(=O)OC(C)(C)C)C[C@@](O)([C@@H](OC(=O)c4ccccc4)[C@H]21)C3(C)C` the same measures were 2.7 and 1.8 nM.
Consider `CCC(=O)O[C@H]1C(=O)[C@@]2(C)[C@H]([C@H](OC(=O)c3cccc(N=[N+]=[N-])c3)[C@]3(O)C[C@H](OC(=O)[C@H](O)[C@H](CC(C)C)NC(=O)OC(C)(C)C)C(C)=C1C3(C)C)[C@]1(OC(C)=O)CO[C@@H]1C[C@@H]2O`, for which inhibition in test [4] was half-maximal at 1.1 nM (IC50).
For `CC(=O)O[C@@]12CO[C@@H]1C[C@H](O)[C@@]1(C)C(=O)[C@H](O)C3=C(C)[C@@H](OC(=O)[C@H](O)[C@@H](NC(=O)OC(C)(C)C)c4ccccc4)C[C@@](O)([C@@H](OC(=O)c4ccccc4)[C@H]21)C3(C)C.O.O.O` [DOCETAXEL], the results for the IC50 (in the test with MCF7 [1]; in the test on HT-29; in test [4]) were 215 nM, 1 nM and 1 nM, respectively.
Regarding `COc1ccccc1C(=O)O[C@H]1C(=O)[C@@]2(C)[C@H]([C@H](OC(=O)c3ccccc3)[C@]3(O)C[C@H](OC(=O)[C@H](O)[C@H](C=C(C)C)NC(=O)OC(C)(C)C)C(C)=C1C3(C)C)[C@]1(OC(C)=O)CO[C@@H]1C[C@@H]2O`, the Ratio in test [5] is reported as 2.7. The compound further displayed an IC50 in test [4] of 2.1 nM.
`CCC(=O)O[C@H]1C(=O)[C@@]2(C)[C@H]([C@H](OC(=O)c3cccc(F)c3)[C@]3(O)C[C@H](OC(=O)[C@H](O)[C@H](C=C(C)C)NC(=O)OC(C)(C)C)C(C)=C1C3(C)C)[C@]1(OC(C)=O)CO[C@@H]1C[C@@H]2O` gave an IC50 in test [4] of 0.5 nM.
In the case of `COc1ccc(C(=O)O[C@H]2C(=O)[C@@]3(C)[C@H]([C@H](OC(=O)c4ccccc4)[C@]4(O)C[C@H](OC(=O)[C@H](O)[C@H](C=C(C)C)NC(=O)OC(C)(C)C)C(C)=C2C4(C)C)[C@]2(OC(C)=O)CO[C@@H]2C[C@@H]3O)cc1`, the Ratio in test [5] was 1.2. Further, the IC50 in test [4] was found to be 3.8 nM.
In turn, `CCC(=O)O[C@H]1C(=O)[C@@]2(C)[C@H]([C@H](OC(=O)c3cccc(OC)c3)[C@]3(O)C[C@H](OC(=O)[C@H](O)[C@@H](NC(=O)OC(C)(C)C)[C@H]4CC4(C)C)C(C)=C1C3(C)C)[C@]1(OC(C)=O)CO[C@@H]1C[C@@H]2O` came in with an IC50 in test [4] of 0.48 nM.
As for `CC(=O)O[C@@]12CO[C@@H]1C[C@H](O)[C@@]1(C)C(=O)[C@H](OC(=O)c3ccc4ccccc4c3)C3=C(C)[C@@H](OC(=O)[C@H](O)[C@H](C=C(C)C)NC(=O)OC(C)(C)C)C[C@@](O)([C@@H](OC(=O)c4ccccc4)[C@H]21)C3(C)C`, the Ratio in test [5] worked out at 2.4. In addition, in test [4], the half-maximal inhibitory concentration (IC50) stood at 6.3 nM.
Take `COc1cccc(C(=O)O[C@H]2[C@@H]3[C@]4(OC(C)=O)CO[C@@H]4C[C@H](O)[C@@]3(C)C(=O)[C@H](OC(C)=O)C3=C(C)[C@@H](OC(=O)[C@H](O)[C@H](C=C(C)C)NC(=O)OC(C)(C)C)C[C@]2(O)C3(C)C)c1`: it took 0.6 nM to reach half-maximal inhibition in test [4] (IC50).
For `COc1cccc(CCC(=O)O[C@H]2C(=O)[C@@]3(C)[C@H]([C@H](OC(=O)c4ccccc4)[C@]4(O)C[C@H](OC(=O)[C@H](O)[C@H](C=C(C)C)NC(=O)OC(C)(C)C)C(C)=C2C4(C)C)[C@]2(OC(C)=O)CO[C@@H]2C[C@@H]3O)c1`, the Ratio in test [5] is 1.8. The compound also yielded an IC50 in test [4] of 3.7 nM.
Consider `CCC(=O)O[C@H]1C(=O)[C@@]2(C)[C@H]([C@H](OC(=O)c3cccc(Cl)c3)[C@]3(O)C[C@H](OC(=O)[C@H](O)[C@H](C=C(C)C)NC(=O)OC(C)(C)C)C(C)=C1C3(C)C)[C@]1(OC(C)=O)CO[C@@H]1C[C@@H]2O`, for which, in test [4], half-maximal inhibition (IC50) required 0.8 nM.
